Values quoted from earlier work, collected in PMC7618104, “The GLP-1 analogue, exendin-4, improves bone material properties and strength through a central relay in ovariectomized mice” (American journal of physiology. Endocrinology and metabolism, 2025).
Ends that are not written are not given here.

What was measured:
CNS = settings: mouse, in vivo, iv; cited from earlier work
Source text: (§1) Taken altogether, these studies might support a brain entry through adsorptive transcytosis across brain endothelial cells. The l ...

osteoblast cultures = settings: in vitro study; cited from earlier work
Source text: These observations formed the basis for investigating the potential utility of a GLP-1r agonist for the management of bone fragility. Ex-4 has already been administered subcutaneously in preclinical models of bone fragility, including the OVX model used in the present study. Previous studies have reported positive effects of Ex-4 that increased bone mineral density, trabecular microstructure and circulating calcitonin leve ...

humans = settings: exogenous GLP-1, humans; cited from earlier work
Source text: (§2) Previously, we and others have highlighted the beneficial role of several gut hormones on bone physiology ([5]). Among gut hormones, glucagon-like peptide-1 (GLP-1) was reported to be beneficial for bone strength. Indeed, animals with a genetic impairment of the GLP-1 receptor (GLP-1r) presented with reduced bone mass, deterioration of bone microarchitecture and alterations of bone material properties, especially enzymatic collagen crosslinking, that jeopardized bone strength ([6], [7]). In humans, GLP-1r gene polymorphisms have also been reported to impact bone mineral density and mass ([8]) ...

brain = settings: in vivo; cited from earlier work
Source text: as §1

[1] = system: streptozotocin-induced type 1 diabetes mellitus; settings: cited from earlier work
[2] = system: individuals in randomized clinical trials; settings: cited from earlier work
Source text: as §2

Row | Substance | brain entry after peripheral administration (brain) | fracture in individuals affected by type 2 diabetes mellitus [2] | also measured
1 | [Ser8]GLP-1: radiolabeled [Ser8]GLP-1, a stable analogue of GLP-1 (HSEGTFTSDVSSYLEGQAAKEFIAWLVKGRG; also: radiolabeled; UniProt P01275 98-128, looked up, variant A8S) |  |  | CNS access, inhibition by excess unlabeled peptide or exendin antagonist (CNS): not inhibited by excess doses
2 | glucagon-like peptide-1 (HAEGTFTSDVSSYLEGQAAKEFIAWLVKGR; ends and bridges not checked; UniProt P01275 98-127, looked up) [GLP-1, gut hormone] |  |  | collagen maturity in vitro (osteoblast cultures): no direct positive effects of GLP-1 on collagen maturity; bone remodeling (humans): rapidly modulates bone remodeling
3 | liraglutide | reported to enter the brain parenchyma | contribute to reduce fracture | bone resistance to fracture [1]: able to enhance bone resistance to fracture
4 | lixisenatide |  | contribute to reduce fracture | 
5 | semaglutide | reported to enter the brain parenchyma |  | 
